For 29 compounds, IC50 results are on record in US20150252022A1, “RETINOIC ACID RECEPTOR-RELATED ORPHAN RECEPTOR MODULATORS AND USES THEREOF” (INNOV17 LLC, priority 2014, published 2015).

For orientation: IC50 means the concentration needed to halve the response being measured. Low readings indicate higher potency, high ones lower potency.

Some results are limits rather than exact numbers.

Common to all, as to assay type: cell-based
What all share (conditions): 72 h; human CD4+ T cells under TH17-polarizing conditions, 3 days, supernatant ELISA
(ELISA stands for enzyme-linked immunosorbent assay.)

One assay relates to IL-17A. As to the kind of experiment: Human TH17 Cytokine Inhibition as measured by ELISA (IL-17A). The method, then: (§1) Peripheral blood mononuclear cells (PBMCs) were sourced from freshly prepared leukocyte enriched plasma (buffy coat) from healthy donors (New York Blood Center). PBMCs were isolated by density gradient centrifugation using Ficoll-Paque™ PLUS (GE Healthcare). Human CD4+ T cells were seeded into 96-well plates (5×10^4 cells/well) and activated with plate-bound anti-human (h)-CD3 antibody and soluble h-aCD28 (both at 1 ug/ml; eBioscience) and differentiated into TH17 cells with 20 ng/mL h-IL-6, 5 ng/mL h-TGF-β1, 10 ng/mL h-IL-23 (eBioscience) and 10 ng/mL IL-1β (Miltenyi Biotec) in serum-free TexMACS Medium (Miltenyi Biotec) supplemented with 1% Penicillin/Streptomycin (Lonza) for 3 days. CD4+ T cells propagated under TH17-polarizing conditions were cultured in the presence or absence of various concentrations of compounds with a final concentration of 0.1% DMSO. Supernatants were collected and stored at −20° C. until assayed for IL-17A, IL-17F and IL-21 levels by “Ready-Set-Go” ELISA kits (eBioscience) as per manufacturer's instructions. Endpoint absorbance was read at 450 nm using a microplate reader (Perkin Elmer).

A further assay concerns IL-17F. Briefly: Human TH17 Cytokine Inhibition as measured by ELISA (IL-17F). On the procedure: as §1
For a further assay, the system named is IL-21. Briefly: Human TH17 Cytokine Inhibition as measured by ELISA (IL-21). On the procedure:
as §1

In the case of `CC1(C)CC(Cn2ccc3cc(-c4cn[nH]c4)ccc32)CN1C(=O)Cc1ccccc1` (stereo not drawn) [Example 109], the concentration for half-maximal inhibition (IC50) with IL-17A, with IL-17F and with IL-21 was under 10 µM each time.
For `Cn1cc(-c2ccc3c(ccn3CC3CCN(C(=O)CCc4ccccc4)CC3)c2)cn1` [Example 125], the half-inhibitory concentration (IC50) in the assay with IL-17A, in the assay on IL-17F and in the assay with IL-21 was under 10 µM each time.
With `CC(C)CC(=O)N1CCC(CN2CCc3cc(-c4cn[nH]c4)ccc32)CC1` [Example 44, 1-(4-((5-(1H-pyrazol-4-yl)indolin-1-yl)methyl)piperidin-1-yl)-3-methylbutan-1-one], the half-inhibitory concentration (IC50) with IL-17A is under 10 µM; in the assay with IL-17F, under 10 µM; in the assay on IL-21, over 10 µM.
For the compound `O=C(c1ccccc1)N1CCC(CN2CCc3cc(-c4cn[nH]c4)ccc32)C1` (stereo not drawn) [Example 9, (3-((5-(1H-pyrazol-4-yl)indolin-1-yl)methyl)pyrrolidin-1-yl)(phenyl)methanone], the 50% inhibitory concentration (IC50) in the assay with IL-17A was under 10 µM; with IL-17F it was over 10 µM; in the assay with IL-21 it was over 10 µM.
For the compound `O=C(CC1CCCCC1)N1CCC(CN2CCc3cc(-c4cn[nH]c4)ccc32)C1` (stereo not drawn) [Example 13, 1-(3-((5-(1H-pyrazol-4-yl)indolin-1-yl)methyl)pyrrolidin-1-yl)-2-cyclohexylethanone], the IC50 in the assay with IL-17A was under 10 µM; with IL-17F it was under 10 µM; with IL-21 it was over 10 µM.
With `Cc1cc2cc(-c3cn[nH]c3)ccc2n1CC1CCN(C(=O)CCc2ccccc2)CC1` [Example 132, 1-(4-((2-methyl-5-(1H-pyrazol-4-yl)-1H-indol-1-yl)methyl)piperidin-1-yl)-3-phenylpropan-1-one], the half-maximal inhibitory concentration (IC50) in the assay on IL-17A, in the assay with IL-17F and with IL-21 was under 10 µM each time.
`O=C(CC1CCCCC1)N1CCCC(CN2CCc3cc(-c4cn[nH]c4)ccc32)CC1` (stereo not drawn) [Example 57, 1-(4-((5-(1H-pyrazol-4-yl)indolin-1-yl)methyl)azepan-1-yl)-2-cyclohexylethanone]: the IC50 with IL-17A, in the assay with IL-17F and with IL-21 was under 10 µM throughout.
With `O=C(CCc1ccccc1)N1CCC(CN2CCc3cc(-c4cn[nH]c4)ccc32)C1` (stereo not drawn) [Example 11, 1-(3-((5-(1H-pyrazol-4-yl)indolin-1-yl)methyl)pyrrolidin-1-yl)-3-phenylpropan-1-one], the concentration for half-maximal inhibition (IC50) in the assay on IL-17A, in the assay on IL-17F and with IL-21 was under 10 µM throughout.
On to `O=C(OCc1ccccc1)N1CCC(CN2CCc3cc(-c4cn[nH]c4)ccc32)CC1` [Example 70, benzyl 4-((5-(1H-pyrazol-4-yl)indolin-1-yl)methyl)piperidine-1-carboxylate], for which the half-maximal inhibitory concentration (IC50) in the assay on IL-17A, in the assay on IL-17F and with IL-21 was under 10 µM each time.
`CC1CC(CN2CCc3cc(-c4cn[nH]c4)ccc32)CN1C(=O)Cc1ccccc1` (stereo not drawn) [Example 25, 1-(4-((5-(1H-pyrazol-4-yl)indolin-1-yl)methyl)-2-methylpyrrolidin-1-yl)-2-phenylethanone]: the 50% inhibitory concentration (IC50) with IL-17A, in the assay with IL-17F and in the assay with IL-21 was under 10 µM in each case.
Regarding `CC(C)COC(=O)N1CCC(CN2CCc3cc(-c4cn[nH]c4)ccc32)C1` (stereo not drawn) [Example 69, isobutyl 3-((5-(1H-pyrazol-4-yl)indolin-1-yl)methyl)pyrrolidine-1-carboxylate], the IC50 with IL-17A, in the assay on IL-17F and in the assay with IL-21 was under 10 µM in each case.
With `CC(C)CNC(=O)N1CCC(CN2CCc3cc(-c4cn[nH]c4)ccc32)C1` (stereo not drawn) [Example 67, 3-((5-(1H-pyrazol-4-yl)indolin-1-yl)methyl)-N-isobutylpyrrolidine-1-carboxamide], the IC50 in the assay on IL-17A, in the assay on IL-17F and in the assay on IL-21 was under 10 µM in each case.
Consider `Cc1cc2cc(-c3cn[nH]c3)ccc2n1CC1CCN(C(=O)Cc2ccccc2)CC1` [Example 133, 1-(4-((2-methyl-5-(1H-pyrazol-4-yl)-1H-indol-1-yl)methyl)piperidin-1-yl)-2-phenylethanone], for which the half-maximal inhibitory concentration (IC50) in the assay on IL-17A, in the assay with IL-17F and with IL-21 was under 10 µM throughout.
As for `O=C(CCc1ccccc1)N1CCCC(CN2CCc3cc(-c4cn[nH]c4)ccc32)CC1` (stereo not drawn) [Example 56, 1-(4-((5-(1H-pyrazol-4-yl)indolin-1-yl)methyl)azepan-1-yl)-3-phenylpropan-1-one], the 50% inhibitory concentration (IC50) with IL-17A, in the assay on IL-17F and in the assay with IL-21 was under 10 µM in each case.
On to `O=C(C1CCCCC1)N1CCC(CN2CCc3cc(-c4cn[nH]c4)ccc32)C1` (stereo not drawn) [Example 12, (3-((5-(1H-pyrazol-4-yl)indolin-1-yl)methyl)pyrrolidin-1-yl)(cyclohexyl)methanone], for which the results for the IC50 in the assay with IL-17A, in the assay on IL-17F and in the assay with IL-21 were under 10 µM, under 10 µM and over 10 µM, respectively.
For `O=C(CCc1ccccc1)N1CCC(Cn2ccc3cc(-c4cnn(CCO)c4)ccc32)CC1` [Example 118, 1-(4-((5-(1-(2-hydroxyethyl)-1H-pyrazol-4-yl)-1H-indol-1-yl)methyl)piperidin-1-yl)-3-phenylpropan-1-one], the IC50 in the assay on IL-17A, with IL-17F and in the assay with IL-21 was under 10 µM each time.
In the case of `O=C(OCc1ccccc1)N1CCC(CN2CCc3cc(-c4cn[nH]c4)ccc32)C1` (stereo not drawn) [Example 62, benzyl 3-((5-(1H-pyrazol-4-yl)indolin-1-yl)methyl)pyrrolidine-1-carboxylate], the half-inhibitory concentration (IC50) in the assay with IL-17A is under 10 µM; in the assay on IL-17F it was under 10 µM; with IL-21 it was over 10 µM.
With `O=C(NCc1ccccc1)N1CCC(CN2CCc3cc(-c4cn[nH]c4)ccc32)CC1` [Example 76, 4-((5-(1H-pyrazol-4-yl)indolin-1-yl)methyl)-N-benzylpiperidine-1-carboxamide], the half-maximal inhibitory concentration (IC50) in the assay on IL-17A, in the assay on IL-17F and with IL-21 was under 10 µM each time.
For the compound `O=C(CCc1ccccc1F)N1CCC(Cn2ccc3cc(-c4cn[nH]c4)ccc32)CC1` [Example 95, 1-(4-((5-(1H-pyrazol-4-yl)-1H-indol-1-yl)methyl)piperidin-1-yl)-3-(2-fluorophenyl)propan-1-one], the IC50 in the assay on IL-17A, in the assay with IL-17F and in the assay with IL-21 was under 10 µM in each case.
In the case of `O=C(CCc1cnccn1)N1CCC(Cn2ccc3cc(-c4cn[nH]c4)ccc32)CC1` [Example 90, 1-(4-((5-(1H-pyrazol-4-yl)-1H-indol-1-yl)methyl)piperidin-1-yl)-3-(pyrazin-2-yl)propan-1-one], the IC50 with IL-17A is over 10 µM; in the assay on IL-17F it was under 10 µM; in the assay on IL-21 it was under 10 µM.
With `Cc1[nH]ncc1-c1ccc2c(ccn2CC2CCN(C(=O)CCc3ccccc3)CC2)c1` [Example 115, 1-(4-((5-(5-methyl-1H-pyrazol-4-yl)-1H-indol-1-yl)methyl)piperidin-1-yl)-3-phenylpropan-1-one], the IC50 in the assay on IL-17A, in the assay with IL-17F and in the assay with IL-21 was under 10 µM each time.
For `CC1CC(CN2CCc3cc(-c4cn[nH]c4)ccc32)CN1C(=O)CC1CCCCC1` (stereo not drawn) [Example 28, 1-(4-((5-(1H-pyrazol-4-yl)indolin-1-yl)methyl)-2-methylpyrrolidin-1-yl)-2-cyclohexylethanone], the half-inhibitory concentration (IC50) with IL-17A, with IL-17F and in the assay on IL-21 was under 10 µM throughout.
On to `CC1(C)CC(Cn2ccc3cc(-c4cn[nH]c4)ccc32)CN1C(=O)CC1CCCCC1` (stereo not drawn) [Example 111], for which the IC50 in the assay with IL-17A, in the assay with IL-17F and in the assay with IL-21 was under 10 µM throughout.
For `O=C(CCc1ccccc1)N1CCC(Cn2ccc3cc(-c4cncs4)ccc32)CC1` [Example 124], the concentration for half-maximal inhibition (IC50) in the assay with IL-17A, in the assay with IL-17F and in the assay with IL-21 was under 10 µM throughout.
Take `O=C(CCCc1ccccc1)N1CCC(Cn2ccc3cc(-c4cn[nH]c4)ccc32)CC1` [Example 89, 1-(4-((5-(1H-pyrazol-4-yl)-1H-indol-1-yl)methyl)piperidin-1-yl)-4-phenylbutan-1-one]: the half-inhibitory concentration (IC50) in the assay on IL-17A, in the assay with IL-17F and in the assay with IL-21 was under 10 µM each time.
On to `O=C(CCc1ccccc1)N1CCC(Cn2ccc3cc(-c4cn[nH]c4)ccc32)CC1` [Example 79, 1-(4-((5-(1H-pyrazol-4-yl)-1H-indol-1-yl)methyl)piperidin-1-yl)-3-phenylpropan-1-one], for which the half-maximal inhibitory concentration (IC50) with IL-17A, with IL-17F and in the assay on IL-21 was under 10 µM in each case.
`O=C(CCc1ccccc1)N1CCC(Cn2ccc3cc(-c4c[nH]nn4)ccc32)CC1` [Example 112, 1-(4-((5-(1H-1,2,3-triazol-4-yl)-1H-indol-1-yl)methyl)piperidin-1-yl)-3-phenylpropan-1-one]: the half-inhibitory concentration (IC50) with IL-17A, in the assay with IL-17F and in the assay on IL-21 was under 10 µM each time.
In the case of `Cc1ccc(-c2ccc3c(ccn3CC3CCN(C(=O)CCc4ccccc4)CC3)c2)nc1` [Example 122], the half-inhibitory concentration (IC50) in the assay on IL-17A, with IL-17F and in the assay on IL-21 was under 10 µM each time.
With `O=C(c1ccccc1)N1CCCC(CN2CCc3cc(-c4cn[nH]c4)ccc32)CC1` (stereo not drawn) [Example 54, (4-((5-(1H-pyrazol-4-yl)indolin-1-yl)methyl)azepan-1-yl)(phenyl)methanone], the half-maximal inhibitory concentration (IC50) in the assay with IL-17A, in the assay on IL-17F and in the assay with IL-21 was under 10 µM each time.
